Laboratory results from patent US12509467B2 (Hoffmann-La Roche Inc., priority 2020, dated 2025).
Read-outs that look alike come from different tables or passages of the source.

Biological target: T1, human cGAS (residues 161-522) (Homo sapiens, UniProt Q8N884)
T1 construct: Recombinantly expressed purified human cGAS (residues 161-522) was used at 25 nM; made in house
Assay: cGAS Activity Assay—Malachite Green
Assay type: biochemical
Description: Compounds were tested for cGAS inhibition in a coupled enzymatic assay based on Phosphate detection by Malachite Green. Final assay conditions were 20 mM TRIS pH 7.5 (Applichem), 5 mM MgCl2 (Sigma) and 0.01% BSA (Sigma) supplemented with 80 μM ATP (Sigma), 80 μM GTP (Sigma) and 100 nM Interferon Stimulating DNA (ISD) (Microsynth).
1 μL of DMSO dilution series was transferred to 32.3 μL reaction buffer, mixed by pipetting up/down, spun for 1 minute at 3000 rpm and was visually inspected for precipitation. 5 μL of 3-fold enzyme stock solution were transferred to an empty 384-well Black/Clear Flat Bottom Polystyrene NBS (Corning) rows 3-24. Rows 1-2 were filled with assay buffer. Plates were spun 10 seconds at 1000 rpm (164×g). 5 μL of compound intermediate dilution was added and mixed by pipetting up/down to rows 3-24. Rows 1-2 were filled with 3.1% DMSO assay buffer. Plates were spun 10 seconds at 1000 rpm (164×g). 5 μL 3-fold Nucleotide/DNA mix was added to all wells to start the reaction. Plates were spun 10 seconds at 1000 rpm (164×g) and incubated for 4 hour at room temperature (RT) in the dark. 5 μL 4 U/mL PPase (Sigma) were added to all wells. Plates spun 10 seconds at 1000 rpm (164×g). 10 μL BioMol green Solution (Enzo Life Sciences) was added to all wells. Plates spun 10 seconds at 1000 rpm (164×g) and incubated 30 minutes at RT in the dark. Absorbance data was collected 620 nm on an EnVision Multilable Reader (Perkin Elmer) and the following measurement settings were used: excitation filter photometric was 620 nm; excitation from the top; measurement height was 1 mm; number of flashes was 30; number of flashes integrated was 1.
All plates are checked for abnormalities and outliers in the Blank Control (no protein, row 1) and the Neutral Control (no compound, row 2) are excluded using the 3*SD rule.
Table 5 provides IC50 values (μM) for cGAS inhibition obtained for particular examples of the present invention as measured by the above-described assay.

[1] = cGAS inhibition, 25 nM cGAS, 80 μM ATP, 80 μM GTP, 100 nM ISD, 4 hour at RT, Malachite Green phosphate detection, read-out: IC50 cGAS

T1 sequence (Q8N884 161-522): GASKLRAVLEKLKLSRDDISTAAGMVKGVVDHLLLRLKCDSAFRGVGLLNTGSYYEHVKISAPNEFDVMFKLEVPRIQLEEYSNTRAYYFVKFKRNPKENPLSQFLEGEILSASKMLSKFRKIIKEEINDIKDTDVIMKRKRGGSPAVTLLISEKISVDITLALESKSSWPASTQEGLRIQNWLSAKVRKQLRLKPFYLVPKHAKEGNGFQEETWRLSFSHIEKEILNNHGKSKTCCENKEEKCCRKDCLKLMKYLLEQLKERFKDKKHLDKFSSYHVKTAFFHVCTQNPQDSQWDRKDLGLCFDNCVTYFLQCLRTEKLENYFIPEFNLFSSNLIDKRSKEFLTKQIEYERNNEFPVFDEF

IC50 [1] [nM] | IC50 [nM] | SMILES
3000 | – | CCCc1cc(=O)n2nc(NCc3ccc4ncccc4c3)nc2[nH]1 [Example 22, 5-propyl-2-(6-quinolylmethyl-amino)-4H-[1,2,4]triazolo[1,5-a]pyrimidin-7-one]
9280 | – | CCCc1cc(=O)n2nc(NCc3ccc(Cl)cc3C)nc2[nH]1 [Example 66, 2-[(4-chloro-2-methylphenyl)-methylamino]-5-propyl-4H-[1,2,4]triazolo[1,5-a]pyrimidin-7-one]
672 | – | CCCc1cc(=O)n2nc(NCc3ccc(-c4ccccc4)cc3)nc2[nH]1 [Example 67, 2-[(4-phenylphenyl)methyl-amino]-5-propyl-4H-[1,2,4]-triazolo[1,5-a]pyrimidin-7-one]
– | 1590 | CCCc1cc(=O)n2nc(NCc3ccc(C(C)C)cc3)nc2[nH]1 [Example 55, 2-[(4-propan-2-ylphenyl)meth-ylamino]-5-propyl-4H-[1,2,4]-triazolo[1,5-a]pyrimidin-7-one]
– | 765 | CCCc1cc(=O)n2nc(NCc3ccc(-c4ccccc4)cc3Cl)nc2[nH]1 [Example 4]
3640 | – | CCCc1cc(=O)n2nc(NCc3ccc(OC)cc3C)nc2[nH]1 [Example 70, 2-[(4-methoxy-2-methylphen-yl)methylamino]-5-propyl-4H-[1,2,4]triazolo[1,5-a]pyrimidin-7-one]
4010 | – | CCCc1cc(=O)n2nc(NCc3ccc(-n4cccn4)cc3)nc2[nH]1 [Example 5, 5-propyl-2-[(4-pyrazol-1-yl-phenyl)methylamino]-4H-[1,2,4]-triazolo[1,5-a]pyrimidin-7-one]
2200 | – | CCCc1cc(=O)n2nc(NCc3ccc(OCC)cc3)nc2[nH]1 [Example 54, 2-[(4-ethoxyphenyl)methyl-amino]-5-propyl-4H-[1,2,4]-triazolo[1,5-a]pyrimidin-7-one]
– | 533 | CCCc1cc(=O)n2nc(NCc3cc(-c4ccn(C)n4)ccc3Cl)nc2[nH]1 [Example 57, 2-[[2-chloro-5-(1-methylpyrazol-3-yl)phenyl]methylamino]-5-propyl-4H-[1,2,4]triazolo[1,5-a]pyrimidin-7-one]
2660 | – | CCCc1cc(=O)n2nc(NCc3ccc(OC(C)C)cc3)nc2[nH]1 [Example 53, 2-[(4-propan-2-yloxyphenyl)-methylamino]-5-propyl-4H-[1,2,4]triazolo[1,5-a]pyrimidin-7-one]
4560 | – | CCCc1cc(=O)n2nc(NCc3nc4ccccc4o3)nc2[nH]1 [Example 74, 2-(1,3-benzoxazol-2-ylmethyl-amino)-5-propyl-4H-[1,2,4]-triazolo[1,5-a]pyrimidin-7-one]
2420 | – | CCCc1cc(=O)n2nc(NCc3ccc(C#N)cc3Cl)nc2[nH]1 [Example 7, 3-chloro-4-[[(7-oxo-5-propyl-4H-[1,2,4]triazolo[1,5-a]-pyrimidin-2-yl)amino]methyl]-benzonitrile]

Continued, compound first:

SMILES | IC50 [1] [nM] | IC50 [nM]
CCCc1cc(=O)n2nc(NCc3cc(N4CC(OC)C4)ncc3Cl)nc2[nH]1 [Example 93, 2-[[5-Chloro-2-(3-methoxyazetidin-1-yl)-4-pyridyl]methylamino]-5-propyl-4H-[1,2,4]triazolo[1,5-a]pyrimidin-7-one] | 650 | –
O=c1cc(CC2CCC2)[nH]c2nc(NCc3ccc(-c4ccccc4)cc3)nn12 [Example 3, 5-(cyclobutylmethyl)-2-[(4-phen-ylphenyl)methylamino]-4H-[1,2,4]triazolo[1,5-a]pyrimidin-7-one] | 1570 | –
Cn1ccc(-c2ccc(F)c(CNc3nc4[nH]c(C(F)(F)F)cc(=O)n4n3)c2)n1 [Example 20, 2-[[2-fluoro-5-(1-methylpyrazol-3-yl)phenyl]methylamino]-5-(trifluoromethyl)-4H-[1,2,4]-triazolo[1,5-a]pyrimidin-7-one] | 1240 | –
Cn1ccc(-c2ccc(Cl)c(CNc3nc4[nH]c(CCCC(F)F)cc(=O)n4n3)c2)n1 [Example 50, 2-[[2-chloro-5-(1-methylpyrazol-3-yl)phenyl]methylamino]-5-(4,4-difluorobutyl)-4H-[1,2,4]-triazolo[1,5-a]pyrimidin-7-one] | 263 | –
O=c1cc(CCc2ccccc2)[nH]c2nc(NCc3ccc(Cl)cc3Cl)nn12 [Example 72, 2-[(2,4-dichlorophenyl)meth-ylamino]-5-(2-phenylethyl)-4H-[1,2,4]triazolo[1,5-a]-pyrimidin-7-one] | – | 2110
CCCc1cc(=O)n2nc(NCc3ccc(-c4ccccc4)cc3F)nc2[nH]1 [Example 1, 2-[(2-Fluoro-4-phenyl-phenyl)methylamino]-5-propyl-4H-[1,2,4]triazolo[1,5-a]pyrimidin-7-one] | 744 | –
CCCc1cc(=O)n2nc(NCc3cc(-c4cccnc4)ccc3Cl)nc2[nH]1 [Example 21, 2-[[2-chloro-5-(3-pyridyl)phen-yl]-methylamino]-5-propyl-4H-[1,2,4]triazolo[1,5-a]pyrimidin-7-one] | – | 744
CCCCc1cc(=O)n2nc(NCc3ccc(Cl)cc3Cl)nc2[nH]1 [Example 35, 5-butyl-2-[(2,4-dichlorophen-yl)methylamino]-4H-[1,2,4]-triazolo-[1,5-a]pyrimidin-7-one] | – | 1320
CCCc1cc(=O)n2nc(NCc3ccc(N4CCOCC4)cc3Cl)nc2[nH]1 [Example 41, 2-[(2-chloro-4-morpholino-phenyl)methylamino]-5-propyl-4H-[1,2,4]triazolo[1,5-a]-pyrimidin-7-one] | 701 | –
O=c1cc(Cc2ccccc2)[nH]c2nc(NCc3ccc(Cl)cc3Cl)nn12 [Example 71, 5-benzyl-2-[(2,4-dichlorophen-yl)methylamino]-4H-[1,2,4]-triazolo[1,5-a]pyrimidin-7-one] | 1760 | –
CC(C)Cc1cc(=O)n2nc(NCc3ccc(Cl)cc3Cl)nc2[nH]1 [Example 64, 2-[(2,4-dichlorophenyl)methyl-amino]-5-isobutyl-4H-[1,2,4]-triazolo[1,5-a]pyrimidin-7-one] | – | 3330
CCCc1cc(=O)n2nc(NCc3cnc(N4CCOCC4)cc3Cl)nc2[nH]1 [Example 99, 2-[(4-Chloro-6-morpholino-3-pyridyl)methylamino]-5-propyl-4H-[1,2,4]triazolo[1,5-a]pyrimidin-7-one] | 2190 | –
CCCc1cc(=O)n2nc(NCc3cc(Nc4nccs4)ccc3Cl)nc2[nH]1 [Example 89, 2-[[2-chloro-5-(thiazol-2-ylamino)phenyl]methylamino]-5-propyl-4H-[1,2,4]triazolo[1,5-a]pyrimidin-7-one] | 492 | –
O=c1cc(CCCC(F)F)[nH]c2nc(NCc3ccc(Cl)cc3Cl)nn12 [Example 52, 2-[(2,4-dichlorophenyl)methyl-amino]-5-(4,4-difluorobutyl)-4H-[1,2,4]triazolo[1,5-a]-pyrimidin-7-one] | – | 3280
O=c1cc(CC(F)(F)F)[nH]c2nc(NCc3ccc(Cl)cc3Cl)nn12 [Example 68, 2-[(2,4-dichlorophenyl)meth-ylamino]-5-(2,2,2-trifluoro-ethyl)-4H-[1,2,4]triazolo[1,5-a]pyrimidin-7-one] | 4440 | –
Cn1ccc(-c2ccc(Cl)c(CNc3nc4[nH]c(C(F)(F)F)cc(=O)n4n3)c2)n1 [Example 19, 2-[[2-chloro-5-(1-methylpyrazol-3-yl)phenyl]methylamino]-5-(trifluoromethyl)-4H-[1,2,4]-triazolo[1,5-a]pyrimidin-7-one] | 663 | –
CCCc1cc(=O)n2nc(NC(C)c3ccc(-c4ccccc4)cc3)nc2[nH]1 (centres unmarked) [Example 56, 2-[1-(4-phenylphenyl)ethyl-amino]-5-propyl-4H-[1,2,4]-triazolo[1,5-a]pyrimidin-7-one] | – | 2870
